For orientation: Papp means the rate of passage across a membrane or cell layer, normalised by area and donor concentration. A high value points to fast passage. The EC50 is the concentration needed to bring the measured effect to its halfway point. Low readings indicate an effect from little substance, high ones a need for much substance. For orientation: Kd means the equilibrium constant for the complex coming apart. By IC50 is commonly meant the midpoint of a concentration-inhibition curve. A lower IC50 goes with inhibition by little substance.

One series has as its system SH-SY5Y. The experiment in a line: Protection against amyloid beta oligomer-induced cytotoxicity in human SH-SY5Y cells expressing wild-type Tau assessed as cell viability at 10 uM by MTT assay. The class given is functional. As to conditions: read-out: Activity. In general terms: Tetrazolium dyes change colour on reduction, which living cells bring about.
The test system of another series is HEL 299. Kind of series: Cytotoxicity against HEL 299 cells by MTT assay. The class given is cell-based. As to conditions: human.
Series [1] is described as follows: Permeability of compound by PAMPA-BBB assay. On the technique in general: In PAMPA a lipid-coated filter parts donor from acceptor wells.
The target of series [2] is T1, Microtubule-associated protein tau (Homo sapiens, UniProt P10636). The experiment in a line: Inhibition of tau oligomerization in human […] cells by TR-FRET assay. The class given is cell-based.
T1 sequence (P10636 whole entry): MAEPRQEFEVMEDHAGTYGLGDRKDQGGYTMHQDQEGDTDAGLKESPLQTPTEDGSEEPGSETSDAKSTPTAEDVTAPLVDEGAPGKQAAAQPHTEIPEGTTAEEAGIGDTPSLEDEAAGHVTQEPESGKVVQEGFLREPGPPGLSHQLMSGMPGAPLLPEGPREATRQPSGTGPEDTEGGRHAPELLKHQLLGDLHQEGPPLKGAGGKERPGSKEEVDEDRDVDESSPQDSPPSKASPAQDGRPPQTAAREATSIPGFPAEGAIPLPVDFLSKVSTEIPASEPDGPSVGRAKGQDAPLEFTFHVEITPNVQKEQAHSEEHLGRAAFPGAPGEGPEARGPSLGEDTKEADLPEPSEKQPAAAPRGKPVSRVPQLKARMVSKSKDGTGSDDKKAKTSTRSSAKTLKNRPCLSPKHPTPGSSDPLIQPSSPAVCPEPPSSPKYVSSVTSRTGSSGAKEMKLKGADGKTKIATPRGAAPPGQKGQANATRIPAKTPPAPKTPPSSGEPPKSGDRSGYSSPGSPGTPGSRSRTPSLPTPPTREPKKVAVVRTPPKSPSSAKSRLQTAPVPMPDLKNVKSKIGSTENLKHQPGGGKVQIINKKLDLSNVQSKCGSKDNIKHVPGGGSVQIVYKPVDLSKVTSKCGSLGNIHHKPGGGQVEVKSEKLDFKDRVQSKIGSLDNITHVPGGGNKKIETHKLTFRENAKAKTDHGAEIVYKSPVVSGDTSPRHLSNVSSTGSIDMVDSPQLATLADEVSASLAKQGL
Series [3] addresses T2, Acetylcholinesterase (Homo sapiens, UniProt P22303). Kind of series: Mixed inhibition of AChE (unknown origin) using acetylthiocholine iodide as substrate by UV-vis spectrophotometry based Lineweaver-burk plot analysis.
Series [4] concerns the target T1, Microtubule-associated protein tau. Kind of series: Binding affinity to tau (unknown origin) assessed as dissociation constant by isothermal titration calorimetry. On the technique in general: Isothermal titration calorimetry measures the heat released or taken up as one component is titrated into another.
Series [5] has the same target. Kind of series: Binding affinity to tau (unknown origin) assessed as dissociation constant by microscale thermophoresis assay.
The nature of series [6]: Stability of compound in gastric fluid. The note with it: simulated gi fluid. The class given is physicochemical.
In series [7] the target is T1, Microtubule-associated protein tau. Kind of series: Binding affinity to tau (unknown origin) assessed as dissociation constant by SPR analysis.
The target is the same in series [8]. The experiment in a line: Binding affinity to tau (unknown origin) assessed as exothermal interaction by isothermal titration calorimetry.
Series [9] concerns the target T2, Acetylcholinesterase. The experiment in a line: Binding affinity to AChE (unknown origin) assessed as dissociation constant by SPR analysis.
Series [10] deals with T2, Acetylcholinesterase. Kind of series: Inhibition of AChE (unknown origin) using acetylthiocholine iodide as substrate by UV-vis spectrophotometry based Ellman's method.
Series [11] can be described thus: Stability of compound in intestinal juice.
A short description of series [12]: Metabolic stability in human plasma. The class given is ADME, cell-free.
Series [13] in a line: Permeability in human Caco-2 cells. The class given is ADME, cell-based.

Calls of active or inactive are those of the source. The calls are words filed in the database; no cut-off is given here.

T2 sequence (P22303 whole entry): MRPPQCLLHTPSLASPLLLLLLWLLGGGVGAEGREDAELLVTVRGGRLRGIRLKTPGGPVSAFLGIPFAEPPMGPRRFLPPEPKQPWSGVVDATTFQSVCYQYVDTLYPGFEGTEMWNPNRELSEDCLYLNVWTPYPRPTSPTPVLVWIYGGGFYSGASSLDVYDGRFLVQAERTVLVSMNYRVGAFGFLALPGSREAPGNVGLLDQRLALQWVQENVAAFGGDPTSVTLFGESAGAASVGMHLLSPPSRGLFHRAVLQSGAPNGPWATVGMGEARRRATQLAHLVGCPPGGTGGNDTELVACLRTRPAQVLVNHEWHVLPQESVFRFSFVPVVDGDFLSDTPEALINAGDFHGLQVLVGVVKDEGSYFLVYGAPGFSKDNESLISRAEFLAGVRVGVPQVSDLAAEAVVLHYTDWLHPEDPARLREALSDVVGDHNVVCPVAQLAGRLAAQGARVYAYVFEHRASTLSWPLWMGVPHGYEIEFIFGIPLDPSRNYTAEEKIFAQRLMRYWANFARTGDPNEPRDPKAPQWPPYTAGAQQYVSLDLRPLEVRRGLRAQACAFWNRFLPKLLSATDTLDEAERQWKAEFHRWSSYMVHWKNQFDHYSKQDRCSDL

For the compound `Nc1c2c(nc3ccccc13)CCCC2` [TACRINE], the viability at 10 µM in the series on SH-SY5Y was found to be 29.5%.

In the case of `CCn1cc(CNCc2c[nH]nc2-c2ccc(-c3ccccc3)cc2)cn1`, the viability at 10 µM with SH-SY5Y came out at 75.1%. Further, in the series with HEL 299, the Activity result is “Non-Toxic”. Also, in series [1], the Papp came out at 33.5 ×10⁻⁶ cm/s. In addition, it took 250 nM to reach a half-maximal effect in series [2] (EC50). The inhibition entry on Acetylcholinesterase [3] is “Active”. For the same compound, the Kd turned out to be 860 nM in series [4], 920 nM in series [5], 590 nM in [7] and 1410 nM at Acetylcholinesterase [9]. The Stabilty result in [6] and in [12] was “Stable” throughout. For the same compound, in series [8], the deltaH was -36.9 kcal/mol. At Acetylcholinesterase [10], this compound gave an IC50 of 350 nM. In series [11], the Stability result is “Stable”. Further, the permeability entry in series [13] is recorded as “Permeable”.

In the case of `CN(C)c1ccc2c(c1)Sc1cc(N(C)C)ccc1N2` [HYDROMETHYLTHIONINE], in the series on SH-SY5Y, the viability at 10 µM was 32.1%.

Regarding `COc1cc2c(cc1OC)C(=O)C(CC1CCN(Cc3ccccc3)CC1)C2` (centres undefined) [DONEPEZIL], the viability at 10 µM in the series on SH-SY5Y was 39.3%.

Turning to `CC(C)c1ccc2c(c1)c(SC(C)(C)C)c(CC(C)(C)C(=O)O)n2Cc1ccc(Cl)cc1`, the viability at 10 µM in the series with SH-SY5Y was 52.4%.

The record behind these values is ChEMBL document CHEMBL4665727, “Discovery of biphenyl pyrazole scaffold for neurodegenerative diseases: A novel class of acetylcholinesterase-centered multitargeted ligands” (Bioorg Med Chem Lett, 2020).
